Measurements as given in publication PMC7576618 (British Journal of Clinical Pharmacology, 2020).
Marks after values point to notes of the source that are not given here.

Tests used:
[1] = SAD study: plasma pharmacokinetics after single oral TS-134; type: in vivo, human; settings: for AUC0‐inf, mean (CV[%]) / Cmax, mean (CV[%]) / t1/2, mean (CV[%]) / tmax, median: plasma
[2] = MAD study: plasma pharmacokinetics after multiple oral dose titration of TS-134; type: in vivo, human; settings: for AUC0‐tau, mean (CV[%]) / Cmax, mean (CV[%]) / t1/2, mean (CV[%]) / tmax, median: plasma, MAD Day 14, fed
[3] = compared with monkeys; cited from earlier work
[4] = SAD Parts A and C, 5 mg fasted (n = 6)
[5] = SAD Parts A and C, 10 mg fasted (n = 4)
[6] = SAD Parts A and C, 10 mg fed (n = 3)
[7] = SAD Parts A and C, 20 mg fasted (n = 3)
[8] = SAD Parts A and C, 20 mg fed (n = 3)

## CC(C)[C@@H]1CC[C@@H](C)C[C@H]1OC(=O)O[C@@H](C)OC(=O)[C@H]1[C@@H]2C[C@H](F)[C@@](N)(C(=O)O)[C@@H]21 [MGS0274]
[1]; SAD, 10 and 20 mg TS‐134
  reduction of plasma AUC in the fed group (food effect): almost no food effect
  reduction of plasma Cmax in the fed group (food effect): up to 45%
[1]; molar ratio, single and multiple oral administration, all treatment groups
  plasma AUC of MGS0274 as share of the AUC of MGS0008: approximately 3%
[1]; SAD Part B, 10 mg fed (n = 6)
  AUC0‐inf, mean (CV[%]): 36.47 ^e (61.58) h•ng mL^−1
[1]; SAD Part B, 10 mg fed (n = 7)
  Cmax, mean (CV[%]): 13.00 (82.69) ng mL^−1
  t1/2, mean (CV[%]): 1.377 ^e (26.45) h
  tmax, median: 30 min
[1]; [4]
  AUC0‐inf, mean (CV[%]): 23.94 ^c (30.64) h•ng mL^−1
  Cmax, mean (CV[%]): 13.43 (55.44) ng mL^−1
  t1/2, mean (CV[%]): 1.013 ^c (35.22) h
  tmax, median: 30 min
[1]; [5]
  AUC0‐inf, mean (CV[%]): 29.33 (31.92) h•ng mL^−1
  Cmax, mean (CV[%]): 17.88 (40.87) ng mL^−1
  t1/2, mean (CV[%]): 0.8765 (17.66) h
  tmax, median: 60 min
[1]; [6]
  AUC0‐inf, mean (CV[%]): 22.69 (8.60) h•ng mL^−1
  Cmax, mean (CV[%]): 8.137 (16.40) ng mL^−1
  t1/2, mean (CV[%]): 1.505 (7.14) h
  tmax, median: 15 min
[1]; [7]
  AUC0‐inf, mean (CV[%]): 72.09 (50.40) h•ng mL^−1
  Cmax, mean (CV[%]): 49.07 (66.56) ng mL^−1
  t1/2, mean (CV[%]): 1.477 (14.30) h
  tmax, median: 15 min
[1]; [8]
  AUC0‐inf, mean (CV[%]): 84.30 ^d (16.80) h•ng mL^−1
  Cmax, mean (CV[%]): 33.27 (45.09) ng mL^−1
  t1/2, mean (CV[%]): 1.669 ^d (7.05) h
  tmax, median: 30 min
[2]; MAD, 5–80 mg
  dose proportionality of steady‐state plasma Cmax and AUC: dose proportional increases
[2]; 5 mg (n = 8)
  AUC0‐tau, mean (CV[%]): 14.90 (37.92) h•ng mL^−1
  Cmax, mean (CV[%]): 6.090 (79.22) ng mL^−1
  t1/2, mean (CV[%]): 1.247 (40.98) h
  tmax, median: 60 min
[2]; 10 mg (n = 8)
  AUC0‐tau, mean (CV[%]): 29.40 (23.81) h•ng mL^−1
  Cmax, mean (CV[%]): 13.91 (51.77) ng mL^−1
  t1/2, mean (CV[%]): 1.212 (35.09) h
  tmax, median: 30 min
[2]; 20 mg (n = 8)
  AUC0‐tau, mean (CV[%]): 56.36 (48.86) h•ng mL^−1
  Cmax, mean (CV[%]): 26.92 (66.42) ng mL^−1
  t1/2, mean (CV[%]): 1.567 (39.16) h
  tmax, median: 30 min
[2]; 40 mg (n = 8)
  AUC0‐tau, mean (CV[%]): 122.0 (29.47) h•ng mL^−1
  Cmax, mean (CV[%]): 40.38 (29.69) ng mL^−1
  t1/2, mean (CV[%]): 4.711 (52.68) h
  tmax, median: 60 min
[2]; 60 mg (n = 8)
  AUC0‐tau, mean (CV[%]): 170.0 (23.85) h•ng mL^−1
  Cmax, mean (CV[%]): 95.14 (42.43) ng mL^−1
  t1/2, mean (CV[%]): 7.549 (93.72) h
  tmax, median: 60 min
[2]; 80 mg Cohort 5 (n = 7)
  AUC0‐tau, mean (CV[%]): 142.0 (19.40) h•ng mL^−1
  Cmax, mean (CV[%]): 85.27 (43.68) ng mL^−1
  t1/2, mean (CV[%]): 10.52 (57.99) h
  tmax, median: 60 min
[2]; 80 mg Cohort 6 (n = 6)
  AUC0‐tau, mean (CV[%]): 203.9 (24.30) h•ng mL^−1
  Cmax, mean (CV[%]): 98.55 (37.09) ng mL^−1
  t1/2, mean (CV[%]): 6.810 (23.98) h
  tmax, median: 30 min
[3]
  hydrolytic activity against MGS0274 in the human liver S9 fraction: comparable to that in monkeys
